Measurements published in US20250228795A1, “ESTROGENIC COMPOUNDS AND METHODS OF USE” (laterion, Inc., priority 2022, published 2025).

Key:
[1] = tested on: MCF-7 breast cancer cells; assay: MCF-7 cell proliferation (viable cell counts), CC7 and six analogs; type: cell-based
Description: In order for long term menopausal hormone therapy to be a viable alternative to currently available therapeutic options it must not promote breast cancer. […] MCF-7 cells were incubated for 24 hr in the presence of medium (control), 1 nM […], or 5 μM of each of the compounds depicted in FIG. 4 (CC7 and six analogs, A9, A10, A11, A13, A15, and A20). Viable cell counts were determined by flow cytometry.
(§1) MCF-7 cells were plated at a density of 50,000 cells per well in 6-well tissue culture plates in DMEM/F12 supplemented with 5% stripped FBS. […] The cells were then detached with trypsin, neutralized with media containing 5% FBS, and resuspended. Appropriate amounts of cell suspension were placed in ISOTON II diluent (Thermo Fisher Scientific, Waltham, MA, USA) and the cell numbers were then measured using a Coulter Counter (Beckman, Brea, CA, USA).
(§2) Flow cytometry was performed based on a previously described method (Pan et al. 2016). Briefly, the cells were plated at a density of 500,000 cells per well in 6-well tissue culture dishes in DMEM/F-12 supplemented with 5% stripped FBS for 48 h. The cultured medium was then replaced by serum-free DMEM/F12 for 24 h. […] The culture medium was then aspirated, and the cells were washed with PBS, detached with trypsin and collected by centrifugation at 1700 rpm for 5 min. The cell pellets were washed with ice cold PBS followed by centrifugation at 1700 rpm for 10 min at room temperature. The cell pellets were resuspended in 500 μL PBS containing 50 μg/mL propidium iodide, 0.1% of triton X-100, 0.1% of sodium citrate, and 10 μg/mL of RNase. The cell suspensions were then analyzed with a BD LSR II Flow Cytometer (BD Biosciences, San Jose, CA, USA) in the Flow Cytometry facility at University of California, Berkeley and the percentage of cells in cell cycle phases were determined by using FlowJo 7.6.5 (FlowJo, LLC, Ashland, OR, USA).

[2] = tested on: MCF-7 breast cancer cells; assay: MCF-7 cell proliferation (viable cell counts), A9 and its four analogs; type: cell-based
Description: Viable cell counts were determined by flow cytometry.
as §1, with “USA)” for “USA).”
as §2

KRT19 = assay: Gene expression assay (real-time PCR) in U2OS-ERα cells: KRT19; type: cell-based, Human; settings: in combination with E2, U2OS-ERα cells, FIG. 5
Description: (§3) Human U2OS (osteosarcoma) cells expressing a tetracycline-regulated ERα (U2OS-ERα) were prepared, characterized, and maintained as previously described (Tee et al., 2004). The cells were maintained in phenol red-free Gibco DMEM/F-12 (Thermo Fisher Scientific, Waltham, MA, USA) supplemented with 5% charcoal-dextran stripped fetal bovine serum (FBS, Gemini Bio Products, West Sacramento, CA, USA), 100 units/mL penicillin and streptomycin, 50 μg/mL Fungizone, and 2 mM of glutamine. To maintain stable transfected cells, 50 μg/mL hygromycin B and 500 μg/mL of zeocin (Invitrogen, Waltham, MA, USA) were included in culture media.

FGR = assay: Gene expression assay (real-time PCR) in U2OS-ERα cells: reprogrammed gene FGR; type: cell-based, Human; settings: FIG. 5
Description: as §3

ERα [3] = biological target: T1, ERα (Homo sapiens, UniProt P03372); assay: Luciferase activity in ERE-TK-Luc/ERα-transfected Ishikawa cells; type: cell-based; design: expressed in transfected cells; host or cells: Ishikawa cells; settings: FIG. 6
T1 sequence (P03372 1-595): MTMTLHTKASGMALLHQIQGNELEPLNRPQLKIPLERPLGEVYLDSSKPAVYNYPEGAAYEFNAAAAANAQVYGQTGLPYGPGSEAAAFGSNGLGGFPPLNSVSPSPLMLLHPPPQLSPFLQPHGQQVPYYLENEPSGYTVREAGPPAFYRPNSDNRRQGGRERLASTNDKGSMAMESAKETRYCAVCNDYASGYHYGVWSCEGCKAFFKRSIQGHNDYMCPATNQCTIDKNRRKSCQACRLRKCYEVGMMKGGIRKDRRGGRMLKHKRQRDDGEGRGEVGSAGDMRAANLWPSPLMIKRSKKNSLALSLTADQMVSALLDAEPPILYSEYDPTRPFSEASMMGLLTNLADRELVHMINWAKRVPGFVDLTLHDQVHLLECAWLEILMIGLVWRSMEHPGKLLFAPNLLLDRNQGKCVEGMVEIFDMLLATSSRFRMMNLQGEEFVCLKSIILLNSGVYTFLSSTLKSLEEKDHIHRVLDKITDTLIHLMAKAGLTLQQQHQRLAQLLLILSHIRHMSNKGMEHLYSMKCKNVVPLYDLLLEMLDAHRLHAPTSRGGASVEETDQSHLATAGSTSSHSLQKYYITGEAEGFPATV

ERα [4] = biological target: T1, ERα; assay: Luciferase assay of A9 analogs in doxycycline-dependent U2OS cells (ER-TK-Luc or NKG2E-TK-Luc); type: cell-based; design: expressed in transfected cells; host or cells: doxycycline-dependent U2OS cells; settings: in combination with E2; ER-TK-Luc (FIG. 9) and NKG2E-TK-Luc (FIG. 10); compared with A9R1-A9R4
Description: Luciferase Assay of A9 analogs. In order to better understand the structure-activity relationship of analogs of A9, the analogs A9R1, A9R2, A9R3, and A9R4 were prepared. See structures on FIG. 8. […] Luciferase activity results are shown in FIG. 9 (ER-TK-Luc) and FIG. 10 (NKG2E-TK-Luc).

ERβ = biological target: T2, ERβ (Homo sapiens, UniProt Q92731); assay: Luciferase activity in NKG2E-TK-Luc-transfected U2OS-ERβ cells with doxycycline; type: cell-based; settings: in combination with E2, doxycycline, FIG. 7
T2 construct: expressed in transfected cells; host or cells: doxycycline-dependent U2OS cells
Description: Luciferase Activity in NKG2E-TK-Luc-Transfected U2OS-ERβ Cells with Doxycycline. […] Luciferase activity for each of the compounds was recorded.

[5] = compound (5 μM) in combination with E2, FIG. 4
[6] = compound (5 μM) in combination with E2, FIG. 11
[7] = compound alone (1 nM E2 or 5 μM compound), FIG. 11
[8] = in combination with E2, Ishikawa cells

T2 sequence (Q92731 whole entry): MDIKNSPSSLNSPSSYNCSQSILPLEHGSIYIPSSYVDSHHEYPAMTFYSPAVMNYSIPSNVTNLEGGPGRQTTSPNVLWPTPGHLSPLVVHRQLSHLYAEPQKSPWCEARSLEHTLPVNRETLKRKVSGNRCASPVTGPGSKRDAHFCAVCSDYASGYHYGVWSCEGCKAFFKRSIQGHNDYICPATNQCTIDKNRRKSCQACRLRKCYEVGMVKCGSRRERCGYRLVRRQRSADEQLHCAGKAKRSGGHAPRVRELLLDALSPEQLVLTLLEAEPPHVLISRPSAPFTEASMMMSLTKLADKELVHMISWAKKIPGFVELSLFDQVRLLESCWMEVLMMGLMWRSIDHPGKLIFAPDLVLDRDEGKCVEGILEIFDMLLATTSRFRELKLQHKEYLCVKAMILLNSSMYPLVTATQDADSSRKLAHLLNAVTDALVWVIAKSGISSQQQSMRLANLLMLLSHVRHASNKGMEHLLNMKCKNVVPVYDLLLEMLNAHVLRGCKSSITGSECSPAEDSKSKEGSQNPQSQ

Row | Compound | MCF-7 viable cell count / proliferation [1, 5] | MCF-7 viable cell count / proliferation [2, 6] | luciferase activity (NKG2E-TK-Luc), ERβ activity (ERβ) | other results
1 | O=C(/C=C/c1ccccc1)c1ccc(O)c(O)c1O [CC7, 2′,3′,4′-trihydroxychalcone, reference compound] | well below the cell counts for E2 alone | well below the control |  | MCF-7 viable cell count / proliferation ([1]; compound alone (1 nM E2 or 5 μM compound), FIG. 4): well below the cell counts for E2 alone; MCF-7 viable cell count / proliferation [2, 7]: well below the cell counts for E2 alone; KRT19 expression (KRT19): large synergistic effect; FGR expression (FGR; compound by itself, U2OS-ERα cells): not by either compound by itself; FGR expression (FGR; in combination with E2, U2OS-ERα cells): activated by the combination of E2 and CC7 only; luciferase activity (ERE-TK-Luc) (ERα [3]; compound alone, Ishikawa cells): no effect; luciferase activity (ERE-TK-Luc) (ERα [3]; [8]): demonstrated synergism with E2
2 | O=C(/C=C/c1ccccn1)c1ccc(O)c(O)c1O [Example A9, (E)-3-(pyridin-2-yl)-1-(2,3,4-trihydroxyphenyl)prop-2-en-1-one] | well below the control | well below the control |  | MCF-7 viable cell count / proliferation [2, 7]: well below the cell counts for E2 alone; luciferase activity, synergistic effect with E2 (ERα [4]): greatest synergistic effect with E2; luciferase activity (ERE-TK-Luc) (ERα [3]; compound alone, Ishikawa cells): no effect; luciferase activity (ERE-TK-Luc) (ERα [3]; [8]): demonstrated synergism with E2
3 | O=C(/C=C/c1ccccn1)c1ccc(O)cc1 [Example A9R1, (E)-1-(4-hydroxyphenyl)-3-(pyridin-2-yl)prop-2-en-1-one] |  | well below the control |  | 
4 | Cc1cc(O)ccc1C(=O)/C=C/c1ccccn1 [Example A9R2, (E)-1-(4-hydroxy-2-methylphenyl)-3-(pyridin-2-yl)prop-2-en-1-one] |  | well below the control |  | 
5 | O=C(/C=C/c1ccccn1)c1ccc(O)cc1O [Example A9R4, (E)-1-(2,4-dihydroxyphenyl)-3-(pyridin-2-yl)prop-2-en-1-one] |  | well below the control |  | 
6 | O=C(/C=C/c1cccc(O)c1)c1ccc(O)c(O)c1O [Example A10, (E)-3-(3-hydroxyphenyl)-1-(2,3,4-trihydroxyphenyl)prop-2-en-1-one] | well below the cell counts for E2 alone |  | exceptional ERβ activity | 
7 | O=C(/C=C/c1ccc(O)cc1)c1ccc(O)cc1 [Example A13, (E)-1,3-bis(4-hydroxyphenyl)prop-2-en-1-one] |  |  | exceptional ERβ activity | 
8 | O=C(/C=C/c1ccc(O)cc1)c1ccc(O)c(O)c1 [Example A14, (E)-1-(3,4-dihydroxyphenyl)-3-(4-hydroxyphenyl)prop-2-en-1-one] |  |  | exceptional ERβ activity | 
9 | O=C(/C=C/c1ccc(O)cc1)c1ccccc1 [Example A15, (E)-3-(4-hydroxyphenyl)-1-phenylprop-2-en-1-one] |  |  | exceptional ERβ activity | 
